# Measured values reported in US12403129B2, “Isotope-enriched 3-amino-1-propanesulfonic acid derivatives for the treatment of cerebrovascular disease” (RISEN (SUZHOU) PHARMA TECH CO., LTD., priority 2021, dated 2025).
# Assays:
# [1] = system: mouse model of dementia caused by cerebral ischemia-reperfusion; experiment: Cognitive tests in mouse model of dementia caused by cerebral ischemia-reperfusion; format: in vivo, C57BL/6J mice
# Protocol: (§1) 140 healthy C57BL/6J mice, including 70 males and 70 females, were used. 1% Pentobarbital Sodium (50 mg/kg) was injected intraperitoneally to anesthetize the mice. The back position was fixed, the neck hair was removed, and the common carotid arteries were cut along the middle of the neck after iodophor disinfection. The common carotid arteries were separated, clamped with a noninvasive artery clamp for 15 minutes, released for 10 minutes, and then clamped for 10 minutes. Penicillin powder was then applied to suture muscles and skin. The sham operation group was not clamped, and other operations were the same as for the model group. […] Mice were divided into 6 groups: sham operation group, model group, positive control group (donepezil) and test compound group (different doses). Test compounds were administered by gavage to each group on the next day of modeling. The compound group was given compounds once a day in the morning and evening, and the volume of each gavage was 10 ml/kg. Half of the animals in the sham operation group and the model group were given the same amount of distilled water, and half of the animals were given the same amount of 1% sodium carboxymethylcellulose solution. From the 16th day of administration, Y maze, new object discrimination (days 17-20), spontaneous activity (days 20), Morris water maze (days 23-28) and dark avoidance experiment (days 29-30) were carried out successively. During the behavioral experiment, the administration of compound was continued until the animals were sacrificed.
# The main pathological index included: investigation of the improvement of learning and memory impairment by the compound in the pathogenic model of cerebral ischemia-reperfusion using behavioral experimental methods such as Y maze, new object discrimination, spontaneous activity, Morris water maze and passive avoidance experiment (dark avoidance); investigation of the ultrastructure of nerve cells (including nucleus, mitochondria and synapse) by HE staining and immunofluorescence; detection of expression of synaptic associated proteins SYP and PSD95 by Western blotting; and detection of expression of apoptosis-related proteins Bcl-2 and Bax by Western blotting. The experimental results for compound 4 on the expression of SYP and PSD95 in the hippocampus of dementia model mice induced by cerebral ischemia-reperfusion are shown in FIG. 5 and FIG. 6 and in Table V below. Experimental results were analyzed statistically using IBM SPSS 21.0 software. The differences between groups were compared by one-way ANOVA or two-way ANOVA (water maze directional navigation) and LSD test. Experimental data were expressed by “mean±SEM”, P<0.05.
# [2] = system: neuronal cells in hippocampal CA1 area and CA3 area and cerebral cortex; experiment: Neuronal cell morphology in ischemia-reperfusion dementia mice; format: in vivo, C57BL/6J mice; settings: compared with the model group
# Protocol: as §1, with “From the 16th day of administration, Y maze, new object discrimination (days 17-20), spontaneous activity (days 20), Morris water maze (days 23-28) and dark avoidance experiment (days 29-30) were carried out successively. During the behavioral experiment, the administration of compound was continued until the animals were sacrificed.” left out
# (§2) The main pathological index included: investigation of the improvement of learning and memory impairment by the compound in the pathogenic model of cerebral ischemia-reperfusion using behavioral experimental methods such as Y maze, new object discrimination, spontaneous activity, Morris water maze and passive avoidance experiment (dark avoidance); investigation of the ultrastructure of nerve cells (including nucleus, mitochondria and synapse) by HE staining and immunofluorescence; detection of expression of synaptic associated proteins SYP and PSD95 by Western blotting; and detection of expression of apoptosis-related proteins Bcl-2 and Bax by Western blotting. […] Experimental results were analyzed statistically using IBM SPSS 21.0 software. […]
# MBP = MBP expression in ischemia-reperfusion dementia mice; format: in vivo, C57BL/6J mice; settings: compared with the model group
# Protocol: (§3) 140 healthy C57BL/6J mice, including 70 males and 70 females, were used. 1% Pentobarbital Sodium (50 mg/kg) was injected intraperitoneally to anesthetize the mice. The back position was fixed, the neck hair was removed, and the common carotid arteries were cut along the middle of the neck after iodophor disinfection. The common carotid arteries were separated, clamped with a noninvasive artery clamp for 15 minutes, released for 10 minutes, and then clamped for 10 minutes. Penicillin powder was then applied to suture muscles and skin. The sham operation group was not clamped, and other operations were the same as for the model group. […]
# as §2
# SYP = SYP expression in hippocampus by Western blotting, ischemia-reperfusion dementia mice; format: in vivo, C57BL/6J mice
# Protocol: Compound 4, 85 mg/kg, bid; D. Compound 4, 170 mg/kg, bid; E. Compound 4, 340 mg/kg, bid; F. Donepezil, 1.3 mg/kg. Compared with sham operation group, ## P<0.01; Compared with the model group, * P<0.05.
# as §1, with “From the 16th day of administration, Y maze, new object discrimination (days 17-20), spontaneous activity (days 20), Morris water maze (days 23-28) and dark avoidance experiment (days 29-30) were carried out successively. During the behavioral experiment, the administration of compound was continued until the animals were sacrificed.” left out
# PSD95 = PSD95 expression in hippocampus by Western blotting, ischemia-reperfusion dementia mice; format: in vivo, C57BL/6J mice
# Protocol: Compound 4, 85 mg/kg, bid; D. Compound 4, 170 mg/kg, bid; E. Compound 4, 340 mg/kg, bid; F. Donepezil, 1.3 mg/kg. Compared with sham operation group: ### P<0.001; Compared with the model group: ** P<0.01, *** P<0.001.
# as §1, with “Half of the animals in the sham operation group and the model group were given the same amount of distilled water, and half of the animals were given the same amount of 1% sodium carboxymethylcellulose solution. From the 16th day of administration, Y maze, new object discrimination (days 17-20), spontaneous activity (days 20), Morris water maze (days 23-28) and dark avoidance experiment (days 29-30) were carried out successively. During the behavioral experiment, the administration of compound was continued until the animals were sacrificed.” left out
# Bcl-2 = Bcl-2 expression by Western blotting, ischemia-reperfusion dementia mice; format: in vivo, C57BL/6J mice
# Protocol: as §3, §2
# Bax = Bax expression by Western blotting, ischemia-reperfusion dementia mice; format: in vivo, C57BL/6J mice
# Protocol: as §3, §2
# [3] = system: rat model of dementia caused by multiple cerebral infarction; experiment: Cognitive tests in rat model of dementia caused by multiple cerebral infarction; format: in vivo, SD rats; settings: Test group vs model group, n = 12-14, dose not given
# Protocol: 135 SPF grade SD rats (75 females, 60 males, weighing 200-220 g) were used. Anesthesia was performed by intraperitoneal injection of 3.5% chloral hydrate (350 mg/kg). After dorsal fixation, neck hair removal and iodophor disinfection, animals were cut along the middle of the neck to separate the right common carotid artery, external carotid artery and internal carotid artery. The common carotid artery was temporarily clamped by the artery clamp, the left external carotid artery was retrogradely punctured to the beginning of the left internal carotid artery with a pediatric scalp needle, and then 0.4 ml of embolic normal saline suspension was slowly injected with a syringe (the preparation of embolic normal saline suspension was as follows: blood was collected from the abdominal aorta of the same rat, dried naturally in a 37° C. incubator, and prepared for 80-200 minutes to form a blood clot; during application, 0.3 ml normal saline was added to every 10 mg blood clot), and the common carotid artery clamp was opened at the same time, then the external carotid artery was ligated and the skin was sutured. In the sham operation group, 0.4 ml normal saline was used instead of embolic suspension. The experimental animals were randomly divided into 6 groups according to weight balance, as follows: sham operation group, model group, positive control group (donepezil) and test compound group (different doses). There were 12-14 rats in each group. The animals in each group began to give drugs by gavage after modeling until the end of the experiment. The animals underwent Y maze experiment on the 16th day of administration, new object discrimination experiment on the 17th-20th day, Morris water maze experiment on the 22nd-27th day, and dark avoidance experiment on the 28th-29th day. On the 30th day, animals were sacrificed and tissues harvested for analysis.
# The main pathological indexes included investigation of the improvement of learning and memory impairment in the dementia model animal by test compound using behavioral experimental methods such as Y maze, new object discrimination, Morris water maze and passive avoidance test (dark avoidance); investigation of the protective effect of test compound on mitochondria by detecting the content of ATP in hippocampus and cortex of rats; and investigation of levels of oxidative stress in the rat brain by measuring activity of superoxide dismutase (SOD, which is an oxygen free-radical scavenger), glutathione peroxidase (GSH-Px, which scavenges lipid peroxides induced by reactive oxygen species and —OH), nitric oxide synthase (NOS), malondialdehyde (MDA), and nitric oxide (NO). The ultrastructure of nerve cells (including nucleus, mitochondria and synapse) was investigated using immunofluorescence and transmission electron microscope. Expression of synaptic associated proteins SYP and PSD95 was detected by Western blotting. Experimental results for compound 4 on the concentration of nitric oxide (NO), the activity of nitric oxide synthase (NOS) and the ultrastructure of nerve cells in the rat model of dementia caused by multiple cerebral infarction are shown in FIGS. 7-11. Experimental results were statistically analyzed using IBM SPSS 21.0 software. The differences between groups were compared by one-way ANOVA or two-way ANOVA (water maze directional navigation) and LSD test.
# [4] = Test group vs model group, n = 15-17, dose not stated
# [5] = mice, gavage, morning and evening
structure (smiles),measurement,setting,value
"[2H]C([2H])(CCS(=O)(=O)O)NC(=O)[C@@H](N)C(C)C [compound 4, 3-((L-valyl)amino)-3,3-dideuterium-1-propanesulfonic Acid]","Discrimination coefficient for new objects, p compared with model group",[1]; [4],p < 0.05
same,"Percentage of swimming distance, p compared with model group",[1]; [4],p < 0.05
same,"Priority index for new objects, p compared with model group",[1]; [4],p < 0.05
same,"Spontaneous alternating response rate, p compared with model group",[1]; [4],p < 0.05
same,"Swimming time in target quadrant, p compared with model group",[1]; [4],p < 0.05
same,"The incubation period for entering the darkroom, p compared with model group",[1]; [4],p < 0.05
same,"Times of crossing the platform, p compared with model group",[1]; [4],p < 0.01
same,discrimination coefficient to new objects in the new object discrimination experiment,[1]; [5],improved
same,incubation period of entering the dark room in the dark avoidance experiment,[1]; [5],prolonged
same,number of times of crossing the platform,[1]; [5],increased
same,percentage of swimming distance in the target quadrant,[1]; [5],improved
same,priority index to new objects in the new object discrimination experiment,[1]; [5],improved
same,spontaneous alternating response rate in the Y maze experiment,[1]; [5],significantly improved
same,swimming time in the target quadrant in the water maze test,[1]; [5],prolonged
same,"working memory, image recognition memory, spatial memory and long-term memory impairment",[1]; vascular dementia mice caused by cerebral ischemia-reperfusion,can significantly improve
same,arrangement and morphology of neuronal cells in hippocampal CA1 area and CA3 area,[2],significantly improved
same,deep staining pyknosis of nuclei in cerebral cortex,[2],significantly reduced
same,deep staining pyknosis of nuclei,[2]; hippocampal CA1 and CA3 area,significantly reduced
same,expression of MBP in hippocampal CA1 area and cerebral cortex,MBP,increased
same,"SYP expression, p compared with model group",SYP; [4],p < 0.05
same,expression of SYP,SYP; compared with the model group,increased
same,"PSD95 expression, p compared with model group",PSD95; [4],p < 0.001
same,expression of PSD95,PSD95; compared with the model group,increased
same,"Bcl-2 expression, p compared with model group",Bcl-2; [4],p < 0.01
same,expression of Bcl-2,Bcl-2; compared with the model group,increased
same,"Bax expression, p compared with model group",Bax; [4],p < 0.01
same,expression of Bax,Bax; compared with the model group,reduced
same,"Percentage of swimming distance, p compared with model group",[3],p < 0.001
same,"Spontaneous alternating response rate, p compared with model group",[3],p < 0.001
